# Laboratory results reported in PMC10254530, “Design and Synthesis of Brefeldin A-Isothiocyanate Derivatives with Selectivity and Their Potential for Cervical Cancer Therapy” (Molecules, 2023).
# Structures can show the parent of a compound that is named as a salt. Where two headings read alike, the source gives them in different places.
# Legend:
# [1] = tested on: HepG2 cells; assay: CCK-8 antiproliferative assay, HepG2; format: cell-based; settings: Homo sapiens, read-out: IC50 HepG2
# Experimental: (§1) All cells were cultured in Dulbecco’s Modified Eagle’s Medium (DMEM) (Burlington, MA, USA) or Roswell Park Memorial Institute (RPMI)-1640 medium containing 10% fetal bovine serum and 1% penicillin/streptomycin in an incubator at 37 °C and 5% CO2. […] Cell suspension with a concentration of 8 × 10^4 cells/mL was prepared after cell counting. 100 μL cell suspension was added to each well of the 96-well plate and then placed in an incubator overnight. Most of the derivatives were configured into 80 mM, 20 mM or 4 mM stock solution in DMSO, and the stock solution concentration of BFA and paclitaxel was 0.4 mM. […] The medium in each well was discarded, and 100 μL of gradient diluted derivative solution was added (the control group was added with serum-free medium).
# [2] = tested on: MDA-MB-231 cells; assay: CCK-8 antiproliferative assay, MDA-MB-231; format: cell-based; settings: Homo sapiens, read-out: IC50 MDA-MB-231
# Experimental: as §1
# [3] = tested on: A375 cells; assay: CCK-8 antiproliferative assay, A375; format: cell-based; settings: Homo sapiens, read-out: IC50 A375
# Experimental: as §1
# [4] = tested on: A549 cells; assay: CCK-8 antiproliferative assay, A549; format: cell-based; settings: Homo sapiens, read-out: IC50 A549
# Experimental: as §1
# [5] = tested on: HeLa cells; assay: CCK-8 antiproliferative assay, HeLa; format: cell-based, human; settings: for IC50: Homo sapiens, HeLa, read-out: IC50 HeLa; for SIHeLa, selectivity index between L-02 and HeLa: SI = IC50(L-02)/IC50(HeLa)
# Experimental: as §1
# [6] = tested on: L-02 cells; assay: CCK-8 cytotoxicity assay, normal liver L-02; format: cell-based; settings: Homo sapiens, read-out: IC50 L-02
# Experimental: as §1
# [7] = HepG2, CCK-8, 48 h, mean ± SD of three experiments
# [8] = MDA-MB-231, CCK-8, 48 h, mean ± SD of three experiments
# [9] = A-375, CCK-8, 48 h, mean ± SD of three experiments
# [10] = A549, CCK-8, 48 h, mean ± SD of three experiments
# [11] = CCK-8, 48 h, mean ± SD of three experiments
# [12] = L02, CCK-8, 48 h, normal liver cells, mean ± SD of three experiments
SMILES,"IC50 [1, 7] [µM]","IC50 [2, 8] [µM]","IC50 [3, 9] [µM]","IC50 [4, 10] [µM]","IC50 [5, 11] [µM]","SIHeLa, selectivity index between L-02 and HeLa [5]","IC50 [6, 12] [µM]","IC50 ([1]; HepG2, 48 h) [µM]","IC50 ([2]; MDA-MB-231, 48 h) [µM]","IC50 ([3]; A-375, 48 h) [µM]","IC50 ([4]; A549, 48 h) [µM]",IC50 ([5]; 48 h) [µM],"IC50 ([6]; L02, 48 h) [µM]"
"C[C@H]1CCC/C=C/[C@@H]2C[C@H](OC(=O)CCC(=O)OCCOC(=O)c3ccc(N=C=S)cc3)C[C@H]2[C@H](OC(=O)CCC(=O)OCCOC(=O)c2ccc(N=C=S)cc2)/C=C/C(=O)O1 [Compound 8a, Bis(2-((4-isothiocyanatobenzoyl)oxy)ethyl) O,O’-((1R,2E,6S,10E,11aS,13S,14aR)-6-methyl-4-oxo-1,6,7,8,9,11a,12,13,14,14a-decahydro-4H-cyclopenta[f][1]oxacyclotridecine-1,13-diyl) disuccinate]",> 40,> 40,> 40,> 40,12 ± 1.47,>6.68,> 80,,,,,,
"O=C(O)c1ccc(N=C=S)cc1 [Compound 2, 4-Carboxyphenyl isothiocyanate, reference compound]",,,,,,1.48,,> 100,82.1 ± 2.7,43 ± 3.34,79.2 ± 2.52,45.7 ± 1.74,67.8 ± 2
"C[C@H]1CCC/C=C/[C@@H]2C[C@H](OC(=O)c3ccc(N=C=S)cc3)C[C@H]2[C@H](O)/C=C/C(=O)O1 [Compound 7, (1R,2E,6S,10E,11aS,13S,14aR)-1-Hydroxy-6-methyl-4-oxo-1,6,7,8,9,11a,12,13,14,14a-decahydro-4H-cyclopenta[f][1]oxacyclotridecin-13-yl 4-isothiocyanatobenzoate]",> 40,17 ± 1.21,5.78 ± 0.1,20.4 ± 1.31,3.02 ± 0.23,2.85,8.6 ± 0.71,,,,,,
"C[C@H]1CCC/C=C/[C@@H]2C[C@H](OC(=O)c3ccc(N=C=S)cc3)C[C@H]2[C@H](OC(=O)c2ccc(N=C=S)cc2)/C=C/C(=O)O1 [Compound 5, (1R,2E,6S,10E,11aS,13S,14aR)-6-methyl-4-oxo-1,6,7,8,9,11a,12,13,14,14a-decahydro-4H-cyclopenta[f][1]oxacyclotridecine-1,13-diyl bis(4-isothiocyanatobenzoate)]",> 40,> 40,> 40,20.9 ± 1.42,> 40,,> 80,,,,,,
"C[C@H]1CCC/C=C/[C@@H]2C[C@H](O)C[C@H]2[C@H](OC(=O)CCC(=O)OCCCCCCOC(=O)c2ccc(N=C=S)cc2)/C=C/C(=O)O1 [Compound 9e, (1R,2E,6S,10E,11aS,13S,14aR)-13-Hydroxy-6-methyl-4-oxo-1,6,7,8,9,11a,12,13,14,14a-decahydro-4H-cyclopenta[f][1]oxacyclotridecin-1-yl (6-((4-isothiocyanatobenzoyl)oxy)hexyl) succinate]",5.77 ± 0.07,1.56 ± 0.05,3.87 ± 0.35,2.59 ± 0.13,0.81 ± 0.03,,7.87 ± 0.33,,,,,,
"C[C@H]1CCC/C=C/[C@@H]2C[C@H](OC(=O)/C=C\C(=O)OCCCCOC(=O)c3ccc(N=C=S)cc3)C[C@H]2[C@H](OC(=O)/C=C\C(=O)OCCCCOC(=O)c2ccc(N=C=S)cc2)/C=C/C(=O)O1 [Compound 8h, Bis(4-((4-isothiocyanatobenzoyl)oxy)butyl) O,O’-((1R,2E,6S,10E,11aS,13S,14aR)-6-methyl-4-oxo-1,6,7,8,9,11a,12,13,14,14a-decahydro-4H-cyclopenta[f][1]oxacyclotridecine-1,13-diyl) dimaleate]",> 40,> 40,> 40,> 40,8.48 ± 0.72,,> 80,,,,,,
"C[C@H]1CCC/C=C/[C@@H]2C[C@H](O)C[C@H]2[C@H](OC(=O)CCC(=O)OCCOCCOC(=O)c2ccc(N=C=S)cc2)/C=C/C(=O)O1 [Compound 9d, (1R,2E,6S,10E,11aS,13S,14aR)-13-Hydroxy-6-methyl-4-oxo-1,6,7,8,9,11a,12,13,14,14a-decahydro-4H-cyclopenta[f][1]oxacyclotridecin-1-yl (2-(2-((4-isothiocyanatobenzoyl)oxy)ethoxy)ethyl) succinate]",2.34 ± 0.31,2.05 ± 0.27,2.93 ± 0.12,2.85 ± 0.1,0.99 ± 0.02,,9.18 ± 0.13,,,,,,
"C[C@H]1CCC/C=C/[C@@H]2C[C@H](OC(=O)/C=C\C(=O)OCC#CCOC(=O)c3ccc(N=C=S)cc3)C[C@H]2[C@H](OC(=O)/C=C\C(=O)OCC#CCOC(=O)c2ccc(N=C=S)cc2)/C=C/C(=O)O1 [Compound 8i, Bis(4-((4-isothiocyanatobenzoyl)oxy)but-2-yn-1-yl) O,O’-((1R,2E,6S,10E,11aS,13S,14aR)-6-methyl-4-oxo-1,6,7,8,9,11a,12,13,14,14a-decahydro-4H-cyclopenta[f][1]oxacyclotridecine-1,13-diyl) dimaleate]",> 40,> 40,> 40,> 40,> 40,,> 80,,,,,,
"C[C@H]1CCC/C=C/[C@@H]2C[C@H](OC(=O)CCC(=O)OCCCCOC(=O)c3ccc(N=C=S)cc3)C[C@H]2[C@H](OC(=O)CCC(=O)OCCCCOC(=O)c2ccc(N=C=S)cc2)/C=C/C(=O)O1 [Compound 8b, Bis(4-((4-isothiocyanatobenzoyl)oxy)butyl) O,O’-((1R,2E,6S,10E,11aS,13S,14aR)-6-methyl-4-oxo-1,6,7,8,9,11a,12,13,14,14a-decahydro-4H-cyclopenta[f][1]oxacyclotridecine-1,13-diyl) disuccinate]",> 40,> 40,> 40,> 40,16.4 ± 1.35,>4.88,> 80,,,,,,
"C[C@H]1CCC/C=C/[C@@H]2C[C@H](O)C[C@H]2[C@H](OC(=O)/C=C\C(=O)OCCOCCOC(=O)c2ccc(N=C=S)cc2)/C=C/C(=O)O1 [Compound 9j, (1R,2E,6S,10E,11aS,13S,14aR)-13-Hydroxy-6-methyl-4-oxo-1,6,7,8,9,11a,12,13,14,14a-decahydro-4H-cyclopenta[f][1]oxacyclotridecin-1-yl (2-(2-((4-isothiocyanatobenzoyl)oxy)ethoxy)ethyl) maleate]",3.69 ± 0.14,2.27 ± 0.03,1.5 ± 0.05,4.61 ± 0.12,1.71 ± 0.02,6.29,10.8 ± 0.57,,,,,,
"C[C@H]1CCC/C=C/[C@@H]2C[C@H](O)C[C@H]2[C@H](OC(=O)CCC(=O)OCC#CCOC(=O)c2ccc(N=C=S)cc2)/C=C/C(=O)O1 [Compound 9c, (1R,2E,6S,10E,11aS,13S,14aR)-13-Hydroxy-6-methyl-4-oxo-1,6,7,8,9,11a,12,13,14,14a-decahydro-4H-cyclopenta[f][1]oxacyclotridecin-1-yl (4-((4-isothiocyanatobenzoyl)oxy)but-2-yn-1-yl) succinate]",8.84 ± 0.28,9.77 ± 0.22,10.4 ± 0.16,13.19 ± 0.03,3.63 ± 0.15,4.79,17.4 ± 0.44,,,,,,
"C[C@H]1CCC/C=C/[C@@H]2C[C@H](O)C[C@H]2[C@H](OC(=O)CCC(=O)OCCCCOC(=O)c2ccc(N=C=S)cc2)/C=C/C(=O)O1 [Compound 9b, (1R,2E,6S,10E,11aS,13S,14aR)-13-Hydroxy-6-methyl-4-oxo-1,6,7,8,9,11a,12,13,14,14a-decahydro-4H-cyclopenta[f][1]oxacyclotridecin-1-yl (4-((4-isothiocyanatobenzoyl)oxy)butyl) succinate]",6.54 ± 0.18,2.23 ± 0.04,2.79 ± 0.25,2.84 ± 0.02,2.28 ± 0.04,4.63,10.6 ± 0.6,,,,,,
"C[C@H]1CCC/C=C/[C@@H]2C[C@H](OC(=O)CCC(=O)OCC#CCOC(=O)c3ccc(N=C=S)cc3)C[C@H]2[C@H](OC(=O)CCC(=O)OCC#CCOC(=O)c2ccc(N=C=S)cc2)/C=C/C(=O)O1 [Compound 8c, Bis(4-((4-isothiocyanatobenzoyl)oxy)but-2-yn-1-yl) O,O’-((1R,2E,6S,10E,11aS,13S,14aR)-6-methyl-4-oxo-1,6,7,8,9,11a,12,13,14,14a-decahydro-4H-cyclopenta[f][1]oxacyclotridecine-1,13-diyl) disuccinate]",> 40,> 40,> 40,> 40,39 ± 1.43,>2.05,> 80,,,,,,
